US10131652B2, “Pyrimidinyloxy benzene derivatives as herbicides” (E. I. DU PONT DE NEMOURS AND COMPANY, priority 2014, dated 2018)

Key:
Assay type in all cases: in vivo
rice (Oryza sativa) = assay: Test C flooded paddy test plant response; details: Flood, 250 g ai/ha; scale of 0 to 100 where 0 is no effect and 100 is complete control; 13 to 15 days
In short: (§1)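 2-leaf plants; flood 3 cm, cpd into paddy water; greenhouse 13–15 d; visual score vs untreated, 0 = no effect, 100 = complete control; dash = no result.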

[1] = test system: small-flower umbrella sedge (Cyperus difformis); assay: Test C flooded paddy test plant response; details: Flood, 250 g ai/ha; scale of 0 to 100 where 0 is no effect and 100 is complete control; 13 to 15 days
In short: as §1

[2] = test system: barnyardgrass (Echinochloa crus-galli); assay: Test C flooded paddy test plant response; details: Flood, 250 g ai/ha; scale of 0 to 100 where 0 is no effect and 100 is complete control; 13 to 15 days
In short: as §1

[3] = test system: ducksalad (Heteranthera limosa); assay: Test C flooded paddy test plant response; details: Flood, 250 g ai/ha; scale of 0 to 100 where 0 is no effect and 100 is complete control; 13 to 15 days
In short: as §1

[4] = test system: wheat (Triticum aestivum); assay: Test B pre-/postemergence plant response
In short: (§2)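 Scoring used a 0–100 scale (100 = complete control) by visual comparison with untreated plants after approximately 10 days in the greenhouse. Compounds, in surfactant-containing non-phytotoxic solvent, were sprayed onto soil at planting or onto 2–10 cm seedlings.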

[5] = test system: pigweed (Amaranthus retroflexus); assay: Test B pre-/postemergence plant response
In short: as §2

corn (Zea mays) = assay: Test B pre-/postemergence plant response
In short: as §2

[6] = test system: barnyardgrass (Echinochloa crus-galli); assay: Test B pre-/postemergence plant response
In short: as §2

[7] = test system: giant foxtail (Setaria faberii); assay: Test B pre-/postemergence plant response
In short: as §2

[8] = test system: johnsongrass (Sorghum halepense); assay: Test D pre-/postemergence plant response; details: Postemergence; for Plant response rating (scale 0 to 100), Johnsongrass: 16 g ai/ha; for Johnsongrass plant response rating: 31 g ai/ha, scale 0 to 100 (0 no effect, 100 complete control); for Plant response rating, Johnsongrass: scale 0 to 100, 0 no effect, 100 complete control
In short: (§3)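 Seeds were planted in a loam and sand blend and sprayed preemergence. In parallel, seedlings grown in peat moss/vermiculite medium were sprayed postemergence at 2 to 18 cm height. Both used a surfactant-containing non-phytotoxic solvent. Greenhouse ratings at 13 to 15 days used a 0–100 control scale.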

soybean (Glycine max) = assay: Test D pre-/postemergence plant response; details: Postemergence; for Plant response rating (scale 0 to 100), Soybean: 16 g ai/ha; for Plant response rating, Soybean: 125 g ai/ha
In short: as §3

[9] = test system: lambsquarters (Chenopodium album); assay: Test D pre-/postemergence plant response; details: Postemergence; for Plant response rating (scale 0 to 100), Lambsquarters: 16 g ai/ha; for Plant response rating, Lambsquarters: 125 g ai/ha
In short: as §3

[10] = test system: winter wheat (Triticum aestivum); assay: Test D pre-/postemergence plant response; details: Postemergence; for Plant response rating (scale 0 to 100), Wheat: 16 g ai/ha; for Plant response rating, Wheat: 125 g ai/ha
In short: as §3

[11] = test system: morningglory (Ipomoea coccinea); assay: Test D pre-/postemergence plant response; details: Postemergence; for Plant response rating (scale 0 to 100), Morningglory: 16 g ai/ha; for Plant response rating, Morningglory: 125 g ai/ha
In short: as §3

[12] = test system: velvetleaf (Abutilon theophrasti); assay: Test D pre-/postemergence plant response; details: Postemergence; for Plant response rating (scale 0 to 100), Velvetleaf: 16 g ai/ha; for Plant response rating, Velvetleaf: 125 g ai/ha
In short: as §3

[13] = test system: waterhemp (common waterhemp, Amaranthus rudis); assay: Test D pre-/postemergence plant response; details: Postemergence; for Plant response rating (scale 0 to 100), Waterhemp: 16 g ai/ha; for Plant response rating, Waterhemp: 125 g ai/ha
In short: as §3

[14] = 125 g ai/ha, postemergence, 0 to 100 scale, 0 no effect, 100 complete control
[15] = Postemergence, 31 g ai/ha, 0 to 100 scale (0 no effect, 100 complete control)
[16] = 31 g ai/ha, Preemergence, 0 to 100 scale where 0 is no effect and 100 is complete control
[17] = Preemergence, 125 g ai/ha, 0 to 100 scale (0 no effect, 100 complete control)
[18] = 31 g ai/ha, scale 0 to 100 (0 no effect, 100 complete control)
[19] = 62 g ai/ha, scale 0 to 100, 0 no effect, 100 complete control
[20] = scale 0 to 100, 0 no effect, 100 complete control

## FCc1cc(-c2ccccc2Oc2ncc(Cl)cn2)on1 [Compound 224]
Rice (Oryza sativa)
  Rice plant response rating: 0
[1]
  Sedge, Umbrella plant response rating: 65
[2]
  Barnyardgrass plant response rating: 0
[3]
  Ducksalad plant response rating: 70
[4]; [14]
  Plant response rating, Wheat: 0
[4]; [15]
  Plant response rating, Wheat: 0
[5]; [16]
  Plant response rating, Pigweed: 90
[5]; [14]
  Plant response rating, Pigweed: 100
[5]; [15]
  Plant response rating, Pigweed: 70
[5]; [17]
  Pigweed plant response rating: 100
Corn (Zea mays); [14]
  Plant response rating, Corn: 20
Corn (Zea mays); [15]
  Plant response rating, Corn: 0
[6]; [16]
  Plant response rating, Barnyardgrass: 10
[6]; [14]
  Plant response rating, Barnyardgrass: 50
[6]; [15]
  Plant response rating, Barnyardgrass: 30
[6]; [17]
  Barnyardgrass plant response rating: 50
[7]; [16]
  Plant response rating, Foxtail, Giant: 40
[7]; [14]
  Plant response rating, Foxtail, Giant: 50
[7]; [15]
  Plant response rating, Foxtail, Giant: 20
[7]; [17]
  Foxtail, Giant plant response rating: 90
[8]
  Plant response rating (scale 0 to 100), Johnsongrass: 5
  Johnsongrass plant response rating: 5
[8]; 62 g ai/ha
  Plant response rating, Johnsongrass: 5
[8]; 125 g ai/ha
  Plant response rating, Johnsongrass: 5
Soybean (Glycine max)
  Plant response rating (scale 0 to 100), Soybean: 35
Soybean (Glycine max); [18]
  Soybean plant response rating: 40
Soybean (Glycine max); [19]
  Soybean plant response rating: 65
Soybean (Glycine max); [20]
  Plant response rating, Soybean: 75
[9]
  Plant response rating (scale 0 to 100), Lambsquarters: 55
[9]; [18]
  Lambsquarters plant response rating: 75
[9]; [19]
  Lambsquarters plant response rating: 80
[9]; [20]
  Plant response rating, Lambsquarters: 85
[10]
  Plant response rating (scale 0 to 100), Wheat: 0
[10]; [18]
  Wheat plant response rating: 0
[10]; [19]
  Wheat plant response rating: 0
[10]; [20]
  Plant response rating, Wheat: 15
[11]
  Plant response rating (scale 0 to 100), Morningglory: 15
[11]; [18]
  Morningglory plant response rating: 35
[11]; [19]
  Morningglory plant response rating: 35
[11]; [20]
  Plant response rating, Morningglory: 80
[12]
  Plant response rating (scale 0 to 100), Velvetleaf: 10
[12]; [18]
  Velvetleaf plant response rating: 25
[12]; [19]
  Velvetleaf plant response rating: 30
[12]; [20]
  Plant response rating, Velvetleaf: 60
[13]
  Plant response rating (scale 0 to 100), Waterhemp: 70
[13]; [18]
  Waterhemp plant response rating: 75
[13]; [19]
  Waterhemp plant response rating: 85
[13]; [20]
  Plant response rating, Waterhemp: 85

## Fc1cccc(Oc2ncc(Cl)cn2)c1-c1cc(C(F)(F)F)no1 [Compound 228]
Rice (Oryza sativa)
  Rice plant response rating: 0
[1]
  Sedge, Umbrella plant response rating: 90
[2]
  Barnyardgrass plant response rating: 40
[3]
  Ducksalad plant response rating: 85
[4]; [14]
  Plant response rating, Wheat: 50
[4]; [15]
  Plant response rating, Wheat: 0
[5]; [16]
  Plant response rating, Pigweed: 100
[5]; [14]
  Plant response rating, Pigweed: 100
[5]; [15]
  Plant response rating, Pigweed: 100
[5]; [17]
  Pigweed plant response rating: 100
Corn (Zea mays); [14]
  Plant response rating, Corn: 30
Corn (Zea mays); [15]
  Plant response rating, Corn: 20
[6]; [16]
  Plant response rating, Barnyardgrass: 50
[6]; [14]
  Plant response rating, Barnyardgrass: 70
[6]; [15]
  Plant response rating, Barnyardgrass: 30
[6]; [17]
  Barnyardgrass plant response rating: 100
[7]; [16]
  Plant response rating, Foxtail, Giant: 90
[7]; [14]
  Plant response rating, Foxtail, Giant: 90
[7]; [15]
  Plant response rating, Foxtail, Giant: 40
[7]; [17]
  Foxtail, Giant plant response rating: 100
[8]
  Plant response rating (scale 0 to 100), Johnsongrass: 10
  Johnsongrass plant response rating: 10
[8]; 62 g ai/ha
  Plant response rating, Johnsongrass: 25
[8]; 125 g ai/ha
  Plant response rating, Johnsongrass: 60
Soybean (Glycine max)
  Plant response rating (scale 0 to 100), Soybean: 60
Soybean (Glycine max); [18]
  Soybean plant response rating: 55
Soybean (Glycine max); [19]
  Soybean plant response rating: 80
Soybean (Glycine max); [20]
  Plant response rating, Soybean: 80
[9]
  Plant response rating (scale 0 to 100), Lambsquarters: 85
[9]; [18]
  Lambsquarters plant response rating: 85
[9]; [19]
  Lambsquarters plant response rating: 90
[9]; [20]
  Plant response rating, Lambsquarters: 95
[10]
  Plant response rating (scale 0 to 100), Wheat: 0
[10]; [18]
  Wheat plant response rating: 5
[10]; [19]
  Wheat plant response rating: 10
[10]; [20]
  Plant response rating, Wheat: 10
[11]
  Plant response rating (scale 0 to 100), Morningglory: 65
[11]; [18]
  Morningglory plant response rating: 65
[11]; [19]
  Morningglory plant response rating: 80
[11]; [20]
  Plant response rating, Morningglory: 75
[12]
  Plant response rating (scale 0 to 100), Velvetleaf: 35
[12]; [18]
  Velvetleaf plant response rating: 40
[12]; [19]
  Velvetleaf plant response rating: 65
[12]; [20]
  Plant response rating, Velvetleaf: 80
[13]
  Plant response rating (scale 0 to 100), Waterhemp: 90
[13]; [18]
  Waterhemp plant response rating: 95
[13]; [19]
  Waterhemp plant response rating: 95
[13]; [20]
  Plant response rating, Waterhemp: 100
